Where a name gives a salt, the structure may show the parent alone.
These compounds were tested against neuronal nicotinic cholinergic channel receptors (assay: [3H]-cytisine displacement binding to neuronal nicotinic cholinergic channel receptors). Details: Table 2; [3H]-cytisine 1.25 nM, 60 min at 4° C.; read-out: Receptor Binding Ki.
Format: rat (crude synaptic membranes from whole rat brain)
Description: B. Protocol For Determination of Nicotinic Cholinergic Channel Receptor Binding Potencies of Ligands
Binding of [^3 H]-cytisine ([^3 H]-CYT) to nicotinic receptors was accomplished using crude synaptic membrane preparations from whole rat brain (Pabreza et al., Molecular Pharmaol., 1990, 39:9). Washed membranes were stored at -80° C. prior to use. Frozen aliquots were slowly thawed and resuspended in 20 volumes of buffer (containing: 120 mM NaCl, 5 mM KCl, 2 mM MgCl2, 2 mM CaCl2 and 50 mM Tris-Cl, pH 7.4 @4° C.). After centrifuging at 20,000×g for 15 minutes, the pellets were resuspended in 30 volumes of buffer. Homogenate (containing […]) was added to triplicate tubes containing concentrations of test compound and [^3 H]-CYT (1.25 nM) in a final volume of 500 μL. Samples were incubated for 60 minutes at 4° C., then rapidly filtered through Whatman GF/B filters presoaked in 0.5% polyethylimine using 3×4 mL of ice-cold buffer. The filters are counted in 4 mL of Ecolume® (ICN). […] Alternately, data were expressed as a percentage of the total specific binding.

| SMILES | Ki [nM] |
| --- | --- |
| CN1CCC[C@H]1COc1cncc(N)c1 [Example 94, 5-Amino-3-(1-methyl-2(S)-pyrrolidinylmethoxy)pyridine hydrochloride] | 0.5 |
| FC(F)(F)c1cncc(OC[C@@H]2CCN2)c1 [Example 70, 3-(2-(S)-azetidinylmethoxy)-5-trifluoromethylpyridine dihydrochloride] | 0.6 |
| CN1CCC[C@H]1CCOc1cccnc1 [Example 103, 3-(2-(1-methyl-2-(S)-pyrrolidinyl)ethoxy)pyridine dihydrochloride] | 18.4 |
| c1ccc2ncc(OC[C@H]3CCCN3)cc2c1 [Example 76, 3-(2-(R)-pyrrolidinylmethoxy)quinoline dihydrochloride] | 12.8 |
| c1cncc(OC[C@H]2CCN2)c1 [Example 62, 3-(2-(R)-azetidinylmethoxy)pyridine dihydrochloride] | 0.5 |
| CN1CC[C@H]1COc1cncc(Cl)c1 [Example 80, 5-chloro-3-((1-methyl-2-(S)-azetidinyl)methoxy)pyridine dihydrochloride] | 1.9 |
| CO[C@H]1CN[C@H](COc2cccnc2)C1 [Example 74, 3-((trans-4-methoxy-2-(S)-pyrrolidinyl)methoxy)pyridine dihydrochloride] | 59 |
| CN1CC[C@@H]1COc1cccnc1 [Example 63, 3-((1-methyl-2-(R)-azetidinyl)methoxy)pyridine dihydrochloride] | 1.4 |
| CN1CC[C@H]1COc1cncc(Br)c1 [Example 68, 3-((1-methyl-2-(S)-azetidinyl)methoxy)-5-bromopyridine dihydrochloride] | 4.5 |
| C=CCN1CCC[C@H]1COc1cncc(Br)c1 [Example 57, 3-((1-allyl-2-(S)-pyrrolidinyl)methoxy)-5-bromopyridine dihydrochloride] | 17 |
| CN1CCC[C@H]1COc1cccnn1 [Example 79, 3-((1-methyl-2-(S)-pyrroidinyl)methoxy)pyridazine dihydrochloride] | 42.8 |
| Clc1cncc(OC[C@@H]2CCCN2)c1 [Example 15, 5-chloro-3-(2-(S)-pyrrolidinylmethoxy)pyridine dihydrochloride] | 0.13 |
| CCCc1cncc(OC[C@@H]2CCCN2C)c1 [Example 77, 5-n-propyl-3-((1-methyl-2-(S)-pyrrolidinyl)methoxy)pyridine dihydrochloride] | 0.1 |
| COCC1C[C@@H](COc2cccnc2)N(C)C1 (stereo partly drawn) [Example 49, 3-((4-methoxymethyl-1-methyl-2-(S)-pyrrolidinyl)methoxy)pyridine dihydrochloride] | 66 |
| CN1C[C@H](CO)C[C@H]1COc1cccnc1 [Example 83, 3-((trans-4-hydroxymethyl-1-methyl-2-(S)-pyrrolidinyl)methoxy)pyridine dihydrochloride] | 73.1 |
| Cc1ncccc1OC[C@@H]1CCCN1C [Example 53, 2-methyl-3-(1-methyl-2-(S)-pyrrolidinylmethoxy)pyridine dihydrochloride] | 28 |
| CN1CCC[C@H]1CCOc1ccc(Cl)nc1 [Example 105, 3-(2-(1-methyl-2-(S)-pyrrolidinyl)ethoxy-6-chloropyridinedihydrochloride] | 33.1 |

Same assay, conditions: read-out: Receptor Binding Ki

| SMILES | Ki [nM] |
| --- | --- |
| CN1CCC[C@H]1COc1cncc2ccccc12 [Example 32, 4-(1-methyl-2-(S)-pyrrolidinylmethoxy)isoquinoline hydrochloride] | 110 |
| CN1C[C@H](O)C[C@H]1COc1cccnc1 [Example 23, 3-((trans-1-methyl-4-hydroxy-2(S)-pyrrolidinyl)methoxy)pyridine dihydrochloride] | 78.3 |
| C[C@H]1CC[C@@H](COc2cccnc2)N1C [Example 22, 3-((cis-1,5-dimethyl-2-(S)-pyrrolidinyl)methoxy)pyridine dihydrochloride] | 25 |
| Cc1ccncc1OC[C@@H]1CCCN1 [Example 27, 4-methyl-3-(2-(S)-pyrrolidinylmethoxy)pyridine dihydrochloride] | 5.8 |

Source: US5948793A, “3-pyridyloxymethyl heterocyclic ether compounds useful in controlling neurotransmitter release” (Abbott Laboratories, priority 1995, dated 1999)
